Assay results reported in patent publication US20250009753A1, “METHODS FOR TREATING IMMUNE REFRACTORY LUNG CANCER” (Revolution Medicines, Inc., priority 2022, published 2025).

Tested on: eLL2 KRASWT/G12C NRAS−/− A2 tumors
Experiment: Immune cell infiltration in tumors by flow cytometry
Format: in vivo, mouse
Conditions: 24 hours post 4 days of treatment, Compound A 200 mg/kg po qd, RMC-4550 30 mg/kg po qd, anti-PD-1 10 mg/kg ip qw
Procedure: Methods: Effects of Compound A (Ex. A556 of Table 1). dosed at 200 mg/kg po qd, RMC-4550 dosed at 30 mg/kg po qd, anti-PD-1 dosed at 10 mg/kg ip qw and the combination therapies on the immune cell infiltration in the eLL2 KRASWT/G12C NRAS−/− A2 tumors have been evaluated 24 hours post 4 days of treatment in 3 mice/group by flow cytometry. Tumor tissue was minced, processed with the Miltenyi Biotec Mouse Tumor Dissociation Kit or the Dri Tumor & Tissue Dissociation Reagent from BD Biosciences, and homogenized with the gentleMACS™ Dissociator. The cell suspension was incubated at 4° C. for 30 minutes with Mouse BD Fc Block (Clone 2.4G2 from BD Pharmingen), 10 minutes with Blue Dead Cell Stain Kit (from Invitrogen) and 30 min in cell staining buffer. Antibodies used targeted CD45 (Clone 30-F11 from BD Biosciences), CD19 (Clone 1D3 from BD Biosciences, CD3E (Clone145-2C11 from Biolegend), CD8b (Clone H35-17.2 from BD Biosciences), CD4 (Clone GK1.5 from Biolegend), CD11b (Clone M1/70 from Biolegend), F4/80 (Clone BM8 from Biolegend), Ly-6G (Clone 1A8 from BD Biosciences) and Ly-6C (Clone HK1.4 from Biolegend).

## Cc1nc(N2CCC3(CC2)CO[C@@H](C)[C@H]3N)c(CO)nc1-c1cccc(Cl)c1Cl [RMC-4550]
  Ly6G+ myeloid suppressor cells: significantly decreased
